As a reminder, the pIC50 is the IC50 on a negative log10 scale, so that one unit is a factor of ten.

Here are results for three compounds from patent US7307100B2, “2-Benzoylchromone derivatives” (Merck Patent GmbH, priority 2002, dated 2007).

pIC50: −log10 of the molar value.

One experiment deals with PKB (Homo sapiens, UniProt P31749). Description: Inhibition of PKB (serine/threonine kinase). It is filed as biochemical. The conditions noted are these: read-out: Inhibition of PKB expressed in IC50. As for the experimental part: (§1) The 2-benzoylchromone derivatives were tested as tyrosine kinase inhibitors (see Table 1: Inhibition of TIE-2), but also as serine/threonine kinase inhibitors (see Table 1: PKB).
Chain of PKB (P31749 whole entry): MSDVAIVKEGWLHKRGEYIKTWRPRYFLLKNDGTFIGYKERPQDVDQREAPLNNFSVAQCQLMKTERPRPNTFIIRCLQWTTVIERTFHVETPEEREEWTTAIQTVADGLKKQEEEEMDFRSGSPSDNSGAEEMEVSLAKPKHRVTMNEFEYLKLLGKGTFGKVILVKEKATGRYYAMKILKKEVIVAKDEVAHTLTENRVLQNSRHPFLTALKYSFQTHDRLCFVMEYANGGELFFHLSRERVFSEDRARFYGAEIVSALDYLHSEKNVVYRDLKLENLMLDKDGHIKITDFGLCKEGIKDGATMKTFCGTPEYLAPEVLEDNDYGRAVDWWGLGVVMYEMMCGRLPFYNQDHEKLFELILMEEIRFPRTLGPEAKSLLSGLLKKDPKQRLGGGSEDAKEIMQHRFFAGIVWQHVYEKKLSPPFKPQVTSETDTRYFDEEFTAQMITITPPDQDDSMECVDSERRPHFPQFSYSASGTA

For a further experiment, the target named is TIE-2 (Homo sapiens, UniProt Q02763). Put plainly: Inhibition of TIE-2 (tyrosine kinase). It is filed as biochemical. The conditions noted are these: read-out: Inhibition of TIE-2 expressed in IC50. The procedure:
as §1

Chain of TIE-2 (Q02763 23-1124): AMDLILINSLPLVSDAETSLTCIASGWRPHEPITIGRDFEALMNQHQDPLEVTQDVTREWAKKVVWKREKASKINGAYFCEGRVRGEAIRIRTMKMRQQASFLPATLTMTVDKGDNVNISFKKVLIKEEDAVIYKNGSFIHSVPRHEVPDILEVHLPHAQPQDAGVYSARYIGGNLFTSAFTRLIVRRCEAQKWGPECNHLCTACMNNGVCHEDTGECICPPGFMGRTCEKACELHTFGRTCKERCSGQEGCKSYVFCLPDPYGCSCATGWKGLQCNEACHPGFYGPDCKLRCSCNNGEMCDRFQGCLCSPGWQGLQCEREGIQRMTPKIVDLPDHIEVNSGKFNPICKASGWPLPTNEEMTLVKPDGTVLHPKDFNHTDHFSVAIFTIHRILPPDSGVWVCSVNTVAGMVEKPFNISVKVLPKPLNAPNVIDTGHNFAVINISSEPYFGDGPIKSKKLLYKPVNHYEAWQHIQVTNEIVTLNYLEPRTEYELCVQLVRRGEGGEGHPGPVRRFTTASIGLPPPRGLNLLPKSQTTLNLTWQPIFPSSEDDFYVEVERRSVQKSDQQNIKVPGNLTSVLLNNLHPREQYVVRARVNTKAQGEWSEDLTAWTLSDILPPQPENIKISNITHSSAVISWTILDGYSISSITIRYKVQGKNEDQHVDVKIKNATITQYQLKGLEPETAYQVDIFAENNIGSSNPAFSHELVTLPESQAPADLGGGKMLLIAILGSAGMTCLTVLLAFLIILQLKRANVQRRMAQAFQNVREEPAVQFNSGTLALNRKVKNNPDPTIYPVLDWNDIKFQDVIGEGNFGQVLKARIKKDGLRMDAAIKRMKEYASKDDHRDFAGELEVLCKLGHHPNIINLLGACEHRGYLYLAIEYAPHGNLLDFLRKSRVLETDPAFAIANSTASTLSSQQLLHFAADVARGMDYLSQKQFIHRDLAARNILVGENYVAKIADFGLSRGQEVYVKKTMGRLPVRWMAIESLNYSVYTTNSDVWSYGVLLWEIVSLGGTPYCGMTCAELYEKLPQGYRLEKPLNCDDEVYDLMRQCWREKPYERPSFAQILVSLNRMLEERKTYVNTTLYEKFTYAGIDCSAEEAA

`O=C(c1cc(=O)c2cc3c(cc2o1)OCO3)c1cc2c(cc1O)OCO2` [6,7-methylenedioxy-2-(2′-hydroxy-4′,5′-methylenedioxybenzoyl)chromone]: the negative-log IC50 (pIC50) is under 4.52 on PKB and 5.44 at TIE-2.
With `O=C(c1cc(=O)c2cc(O)ccc2o1)c1cc2c(cc1O)OCO2` [6-hydroxy-2-(2′-hydroxy-4′,5′-methylenedioxybenzoyl)chromone], the figures for the negative logarithm of the IC50 (pIC50) on PKB and at TIE-2 were under 4.52 and under 5.00, respectively.
For the compound `O=C(c1cc(=O)c2c(O)cccc2o1)c1ccc(O)cc1O` [5-hydroxy-2-(2′,4′-dihydroxybenzoyl)chromone], the pIC50 on PKB is under 4.52; at TIE-2, under 5.00.
